Like-named read-outs stand apart in the source and are kept apart here. Starred links: 1 amine or outer side, 2 acyl side, 3 side chain; linkers in the order of their positions; H or OH if unused. Positions of bridges follow the written chain, without caps; N, C: chain ends. Non-standard residues stand in square brackets, D forms with d. Residues, ends and D or L forms follow the SMILES beside them. *: point of attachment. Orn(4R-OH,5R-OCH2CH2NMe3+) = C[N+](C)(C)CCO[C@@H](N[*:3])[C@H](O)C[C@H](N[*:1])C(=O)[*:2]; pTerphenylCO(4''-OnC5H11) = CCCCCOc1ccc(-c2ccc(-c3ccc(C(=O)*)cc3)cc2)cc1; hTyr(3S-OH,4S-OH) = N[C@H](C(=O)O)[C@H](O)[C@@H](O)c1ccc(O)cc1; Pro(3S-OH,4S-Me) = C[C@H]1CN[C@H](C(=O)O)[C@H]1O; Hyp = O=C(O)[C@@H]1C[C@@H](O)CN1
Columns and labels:
[1] = rat
[2] = 2-week repeat-dose toxicity and hepatotoxicity screening; assay type: in vivo, Sprague-Dawley rats
Protocol: Dosing solutions were prepared in a vehicle comprising 5% mannitol containing 2.5% polysorbate 80 (Tween 80) in 0.3% acetic acid.
Animals were randomly assigned to dose groups and stratified by weight to achieve similar group mean body weights (males, 255 to 318 g; females, 192 to 215 g). Blood, urine, and liver samples (excised and preserved in 10% neutral buffered formalin) were obtained on day 15. Plasma liver enzyme levels were assessed. Liver tissues were processed to paraffin blocks and prepared for slides. Slides were stained with hematoxylin and eosin. Hematology data were collected using the Advia 120 hematology analyzer. Coagulation data were collected using the Diagnostica STA compact coagulation analyzer. Clinical chemistry data were collected using the AU400 chemistry analyzer. Qualitative and quantitative urinalysis was recorded using iRICELL 1500 UA analyzer. Clinical effects were assessed for determination of the maximum tolerated dose (MTD).
Statistical evaluations were performed on in-life and clinical pathology numerical data to determine statistical significance following a decision tree. First, the homogeneity of the data was determined by Bartlett's test. If the data were homogeneous, a one-way analysis of variance was performed to assess statistical significance. If statistically significant differences between the means were found, Dunnett's test was used to determine the degree of significance from the control means (P < 0.05, P < 0.01, and P < 0.001). If the data were nonhomogeneous, the Kruskal-Wallis nonparametric analysis was performed to assess statistical significance. If statistically significant differences between the means were found (P < 0.05, P < 0.01, and P < 0.001), the Mann-Whitney U test was used to determine the degree of significance from the control means (P < 0.05, P < 0.01, and P < 0.001).

[3] = Plasma protein binding, rapid equilibrium dialysis; assay type: in vitro ADME, chimpanzee; conditions: pH 7.4, read-out: protein bound (converted)
Protocol: (§1) Rapid equilibrium dialysis (RED) ([16]) was used to determine cross-species protein binding of CD101 in CD-1 mouse, Sprague-Dawley rat, cynomolgus monkey, chimpanzee, and human plasma. […] Dialysis buffer (350 μl of phosphate-buffered saline [PBS], pH 7.4, with 100 mM sodium phosphate) was loaded into the buffer (left) channel of the RED device. The device was agitated gently at 37°C for 4 h. Samples were placed into a new 96-well plate for matrix matching (25 μl of plasma added to the dialysis buffer aliquots or 25 μl of dialysis buffer to the plasma aliquots). […] Following centrifugation, 200 μl of the supernatant was transferred to a clean 96-well plate and evaporated to dryness at 37°C under nitrogen. Samples were reconstituted in 100 μl of 1:1 acetonitrile-water prior to analysis by LC-MS/MS. The percentage bound was calculated as the difference between 100% and the percentage free (the ratio of the concentration in supernatant to the concentration in plasma).

[4] = Plasma protein binding, rapid equilibrium dialysis; assay type: in vitro ADME; conditions: human, pH 7.4, read-out: protein bound (converted)
Protocol: as §1

[5] = after 44 h; cited from earlier work
Source text: CD101, a novel echinocandin being developed as a high-exposure, once-weekly intravenous (i.v.) formulation for the treatment and prevention of systemic fungal infections, was designed to be chemically and metabolically stable to avoid hepatotoxicity while retaining the antifungal activity of an echinocandin.

[6] = Plasma protein binding, rapid equilibrium dialysis; assay type: in vitro ADME, CD-1 mouse; conditions: mouse, pH 7.4, read-out: protein bound (converted)
Protocol: as §1

[7] = system: C. albicans R303; test: Neutropenic mouse model of C. albicans infection, kidney colony counts; conditions: for log reduction in CFU per gram relative to vehicle: 24, 48, 72 h
Protocol: Immunosuppression was induced by two intraperitoneal (i.p.) injections of cyclophosphamide at 150 mg/kg 4 days before and 100 mg/kg 1 day before inoculation. […] The animals in the fluconazole group were sacrificed 48 h after infection.

[8] = Plasma protein binding, rapid equilibrium dialysis; assay type: in vitro ADME, cynomolgus monkey; conditions: monkey, pH 7.4, read-out: protein bound (converted)
Protocol: as §1

[9] = system: A. fumigatus (ATCC 13073); test: MEC/MIC, CLSI broth microdilution; conditions: 24 h at 35°C, rounded/compact hyphal morphology
Protocol: Enumeration of MIC and MEC assay inoculum viable counts was performed by plating aliquots of the starting assay inoculum on Sabouraud dextrose agar.

[10] = system: A. fumigatus (ATCC 13073); test: Neutropenic mouse model of A. fumigatus infection, survival; conditions: for survival: 10-day observation, n = 10/group
Protocol: Animals were immunosuppressed by three i.p. injections of cyclophosphamide (the first injection at 6 mg/mouse 3 days before inoculation and the second and third injections at 2 mg/mouse on 1 and 4 days after inoculation). […] Dose administration started 1 and 7 h after infection. […] An increase of 50% or more in the survival rate of the active groups compared to the vehicle group indicated significant antifungal efficacy.

[11] = Metabolic stability in liver microsomes; conditions: for t1/2, NADPH free / half-life in liver microsomes: 1 μM; for t1/2, NADPH free: up to 2 h at 37°C, LC-MS/MS, first-order decay fit; for half-life in liver microsomes: NADPH state not specified, 37°C; for half-life: liver microsomes
Protocol: Metabolic stability was determined as described in reference. […] Following incubation, samples were quenched with ice-cold methanol or acetonitrile (ACN), containing an appropriate internal standard and centrifuged to remove precipitated protein, and the supernatants were analyzed to quantitate the remaining parent. […] Data were converted to the percentage remaining by dividing by the time zero concentration value. Data were fit to a first-order decay model to determine half-life. Intrinsic clearance was calculated from the half-life and the protein concentrations.

[12] = 4-week repeat-dose, ref Ong et al., submitted, cited from earlier work
Source text: The studies described herein are part of a comprehensive series of safety, pharmacology, and toxicology studies of up to 4 weeks' duration as well as genetic toxicology studies, as required for an investigational new drug application. The results provide important insights for further research and development of CD101 and are best considered in this broader, developing context.

[13] = CD101 2, 6, 20 mg/kg/day i.v. 14 days, rats

SMILES: CCCCCOc1ccc(-c2ccc(-c3ccc(C(=O)N[C@H]4C[C@@H](O)[C@@H](OCC[N+](C)(C)C)NC(=O)[C@@H]5[C@@H](O)[C@@H](C)CN5C(=O)[C@H]([C@@H](C)O)NC(=O)[C@H]([C@H](O)[C@@H](O)c5ccc(O)cc5)NC(=O)[C@@H]5C[C@@H](O)CN5C(=O)[C@H]([C@@H](C)O)NC4=O)cc3)cc2)cc1 [CD101] ({pTerphenylCO(4''-OnC5H11)}-[Orn(4R-OH,5R-OCH2CH2NMe3+)]T[Hyp][hTyr(3S-OH,4S-OH)]T[Pro(3S-OH,4S-Me)]; lactam 1-C)
- half-life ([1]; liver microsomes): > 4 h
- half-life ([1]; microsomes): 3.99 h
- microsomal CLint ([1]; microsomes): 9.6 µL/min/mg
- repeat-dose systemic or target organ toxicity ([2]; 14-day i.v. infusion, rats, CD101 20 mg/kg/day, anidulafungin 40 mg/kg/day (comparable exposure)): did not appear to elicit any evidence of repeat-dose systemic or target organ toxicity
- early deaths [2, 13]: no early deaths
- effects on body weight, hematology, coagulation, or urinalysis [2, 13]: did not exhibit effects on body weight, hematology, coagulation, or urinalysis
- increases in neutrophils ([2]; CD101 2, 6, 20 mg/kg/day i.v. 14 days, rats, P ≤ 0.01, within normal limits, considered incidental): up to 31%
- increases in reticulocytes, hemoglobin, hematocrit, activated partial thromboplastin time, BUN, sodium, total bilirubin, total protein, chloride, and globulin ([2]; CD101 2, 6, 20 mg/kg/day i.v. 14 days, rats, P ≤ 0.05, within normal limits, considered incidental): less than 20%
- microscopic changes in the liver ([2]; day 15, H&E, CD101 2, 6, or 20 mg/kg/day, anidulafungin 40 mg/kg/day (some of the females)): no microscopic changes
- fraction unbound [3]: 0.012
- fraction unbound [4]: 0.013
- % remaining in human plasma [5]: 93%
- fraction unbound [6]: 0.009
- log reduction in CFU per gram relative to vehicle ([7]; 0.2 mg/kg single i.v. dose): less than 1 log
- log reduction in CFU per gram relative to vehicle ([7]; 0.4 mg/kg single i.v. dose): up to 1.7 log
- log reduction in CFU per gram relative to vehicle ([7]; 0.6 mg/kg single i.v. dose): up to 2.9 log
- log reduction in CFU per gram relative to vehicle ([7]; 0.8 mg/kg single i.v. dose): up to 4.7 log
- antimicrobial effect (≥99%, 2-log reduction in CFU per gram) ([7]; CD101 0.6 and 0.8 mg/kg i.v., at 24, 48, and 72 h): significant
- fraction unbound [8]: 0.011
- MEC [9]: 0.004 µg/mL
- survival ([10]; 0.2 mg/kg i.v. BID for 5 days): 80%
- survival ([10]; 1 mg/kg i.v. BID for 5 days): 90%
- survival ([10]; 5 mg/kg i.v. BID for 5 days): 100%
- 10-day survival rate compared to the vehicle group ([10]; BID for 5 days, CD101 all dose groups and anidulafungin 1 and 5 mg/kg i.v. (P < 0.05), amphotericin B 0.3 mg/kg i.p.): significant increase
- t1/2, NADPH free ([11]; human liver microsomes without NADPH): >4 h
- half-life in liver microsomes ([11]; human microsomes): ≥ 4 h
- half-life ([11]; human): > 4 h
- t1/2, NADPH free ([11]; monkey liver microsomes without NADPH): >4 h
- half-life in liver microsomes ([11]; monkey microsomes): ≥ 4 h
- half-life ([11]; monkey): > 4 h
- microsomal CLint ([11]; monkey, microsomes): 2.1 µL/min/mg
- no observed adverse effect level relative to the efficacious plasma exposure level ([12]; cynomolgus monkeys): 47 times
- no observed adverse effect level relative to the efficacious plasma exposure level ([12]; rats): 34 times
